From patent US20260207637A1, “MODULATOR FOR PROMOTING BINDING OF BUTYROPHILIN 3A1/2A1” (priority 2023, published 2026)
Like-named read-outs stand apart in the source and are kept apart here.

Experiments:
[1] = system: MIApaca/FG2 cells; experiment: EC50 assay of small molecule activated γδ T cells to kill MIApaca/FG2 tumor cells (10-fold dilution protocol); format: cell-based
Description: γδT cells and MIApaca/FG2 tumor cell lines were expanded and cultured in vitro. The MIApaca/FG2 cells were digested, and the cells were counted and resuspended in DMEM complete medium, the density of the cell suspension was adjusted and added into a 96-well plate at 5×10^3 cells/50 μL/well for overnight incubation. On the next day, the test compound and the control compound were diluted at a 10-fold ratio with γδT complete medium. 50 μL of diluted compound was transferred to the corresponding wells which had been plated with tumor cells, and the actual detection concentration was in the range of 10^−12-10^−5 M. γδT cells were resuspended in γδT complete medium, and the density of the cell suspension was adjusted according to the effector-target ratio of E:T=2:1, and then the cells were added to the corresponding wells at 1×10^4 cells/50 μL/well. After co-culture at 37° C., 5% CO2 for 20 hours, the cells were centrifuged. The supernatant was removed, and 50 μL of cell lysate containing luciferin substrate was added to each well. After standing for 18 minutes in the dark, the signal of chemiluminescence was detected. The EC50 value was calculated by four-parameter fitting, with the corresponding signal value of the well with only tumor cells as the minimum killing value, and the corresponding signal value of the well without tumor cells as the maximum killing value. The killing data of MIApaca/FG2 cells is as follows: […]

[2] = Stability experiment of compounds in human whole blood; format: in vitro ADME; conditions: whole blood (sodium heparin), 37° C., 0-4 h, read-out: T1/2 in human whole blood (converted)
Description: • (1) An appropriate amount of blank whole blood was added into an EP tube containing sodium heparin, then added the working solution of the test substance to a final concentration of 1 μM, and mixed by vortex; • (2) The sample was placed in a water bath at 37° C. with two parallel experiments; for one experiment, the time points were 0 h, 0.5 h, 1 h, 2 h, and 4 h; another experiment was performed to obtain the absolute zero point, which was compared with the 0 h point. • (3) An appropriate amount of sample was taken out from the incubation system, to which 300 μL of internal standard precipitant was added for protein precipitation; (4) all samples were centrifuged at 6° C. for 10 min (15700×g). • (5) 150 μL of the supernatant was taken out, to which 150 μL of water was added, which was mixed by vortex, and analyzed by LC-MS/MS. The stability data of compounds in human whole blood is as follows: […]

[3] = Pharmacokinetic test in cynomolgus monkeys; format: in vivo; conditions: IV 2 mg/kg
Description: The control compound 2 and compound 19 were formulated into 1 mg/mL solution in 10% DMSO/90% PBS. Cynomolgus monkeys were obtained from Suzhou Leo Bio Technology Co., Ltd. The control compound 2 and compound 19 were administered intravenously at 2 mg/kg, respectively. The blood collected before administration was recorded as zero point. Then 1 mL of blood was collected at eight time points: 0.083, 0.15, 0.5, 1.0 2.0, 4.0, 8.0, and 24.0, respectively. 1 mL of the collected whole blood was placed in a labeled EDTA-2K anticoagulant tube. After gently inverting up and down to fully mix the anticoagulant (EDTA-2K) with the blood, it was immediately placed in wet ice and centrifuged within 30 minutes to separate the plasma. The centrifugation conditions were set to 4° C., 2200 g, and 6 min. The plasma separated after centrifugation was placed in a labeled EP tube, and the content of compound 19 and control compound 2 in the plasma samples at different time points were detected and analyzed. There were 3 male cynomolgus monkeys in each group.

[4] = Stability experiment of compounds in human liver microsomes; format: in vitro ADME; conditions: NADPH, 37° C., read-out: T1/2 in human liver microsomes
Description: Compounds were prepared as a 10 mM stock solution with DMSO and then diluted with 80% acetonitrile-water to a 100 μM working solution for later use. Human liver microsomes were obtained from BIOIVT.
(1) The liver microsomes taken out from the refrigerator were placed in a 37° C. water bath thermostatic oscillator, pre-incubated for 5 min, and thawed for later use.
(2) A certain amount of NADPH was weighed and added to an appropriate amount of magnesium chloride solution to dissolve into a 2 mM solution for later use.
(3) A mixed solution of the warm incubation system (containing no β-NADPH) was prepared according to the proportions in the “composition of the experimental warm incubation system” above and dispensed at 165 μL/tubes (45 μL/tube for the negative control group and 120 μL/tube for the positive control group).
(4) For the sample at 0 min: 200 μL of internal standard working precipitant was added and then 30 μL of NADPH solution was added.
(5) For other samples: 135 μL NADPH solution was added to initiate the reaction (45 μL magnesium chloride solution was added for the negative control group), and incubated in a 37° C. water bath for 5, 15, 30, and 60 min (incubated in a 37° C. water bath for 60 min for the negative control group), then 60 μL was sampled and added to 200 µL of precipitant containing internal standard.
(6) For the positive control group: 90 L NADPH solution was added to initiate the reaction, and incubated in a 37° C. water bath for 5, 15 min, then 60 μL was sampled and added to 200 μL of precipitant containing internal standard.
(7) For neat sample: 297 μL of water was pipetted into a tube, 1000 μL of internal standard working solution was added, and 3 μL of test compound working solution was added.
(8) All samples were vortexed and centrifuged.
(9) 150 μL of the supernatant was sampled and added to 150 μL of water, mixed uniformly by vortex, and analyzed by LC-MS/MS. The half-life stability data of human liver microsomes is as follows: […]

[5] = Binding rate test of compounds and human plasma protein (equilibrium dialysis); format: in vitro ADME; conditions: human plasma, equilibrium dialysis 6 hours, 37° C.
Description: (1) The dry dialysis membrane was soaked with ultrapure water for 20 min or more than 20 min, then soaked with 20% ethanol for 30 min to 1 h, and the membrane was rinsed with ultrapure water 2-3 times. Finally, the membrane was soaked with ultrapure water for 20 minutes for later use.
(2) The frozen plasma was thawed in a water bath at 37° C.
(3) The test compound was diluted into plasma preheated to 37° C. at a final concentration of 1 μM, and the final concentration of the control compound warfarin in plasma was 2 μM.
(4) The pre-treated dialysis membrane was assembled into the dialysis plate according to the specification of the product, and 120 μL of the receiving solution (100 mM phosphate buffer solution added 0.002% Tween 80) was added to one side of the permeable membrane in each dialysis well.
(5) 20 μL of each of the final solutions of the test compound and the control compound were added into a 96-well sample plate in duplicate, and the TO sample was obtained, which was stored in a refrigerator at −20° C. Another 20 μL of the above final solution was added to the other side of the membrane in the dialysis device in duplicate, and incubated at 37° C. by shaking at constant temperature for 6 hours.
(6) After 6 hours of incubation, 20 L of each of the dialyzed receiving solution and the administered plasma were weighed to obtain sample B and sample A in duplicate. The corresponding volume of corresponding blank plasma or receiving solution was added to sample B and sample A, respectively, so that the volume ratio of plasma to buffer in each sample well was 1:1. 300 μL of acetonitrile solution containing internal standard was added to all sample wells, and centrifuged after mixed uniformly.
(7) 200 μL of ultrapure water (150 μL for the control group) was added into the corresponding sample wells of the 96-well sample plate, and 300 μL of the supernatant (150 μL for the control group) was added into the sample well; the samples were analyzed after mixed uniformly. The free percentage and recovery rate of the compound in plasma were calculated using the following formula: Plasma protein binding rate (%)=1−free percentage, wherein free percentage (%)=CB/CA
wherein CB is the concentration of the compound in the receiving solution after equilibrium dialysis, CA is the concentration of the compound in the drug-dosed plasma after equilibrium dialysis, and CT0 is the initial concentration of the compound in plasma.

[6] = Homo sapiens, MIA PaCa-2, γδT cells + MIApaca/FG2, E:T=2:1, co-culture 20 hours, 10^-12-10^-5 M, read-out: MIApaca killing (EC50)
[7] = read-out: MIApaca killing (EC50), γδT cells + MIApaca/FG2, E:T=2:1, co-culture 20 hours, 10^-12-10^-5 M

Row | SMILES | EC50 [1, 6] [nM] | EC50 [1, 7] [nM] | further results
1 | C[C@H](NP(=O)(OC/C=C(/CO)C(F)(F)F)Oc1ccccc1)C(=O)O[C@@H]1CCOC1 (some centres unmarked) [Compound 13] | 6.6 |  | 
2 | C[C@H](NP(=O)(OC/C=C(/CO)C(F)(F)F)Oc1ccccc1)C(=O)OCC1CC1 (stereo partly drawn) [Compound 9, Cyclopropylmethyl ((phenoxy)(((Z)-4,4,4-trifluoro-3-(hydroxymethyl)but-2-en-1-yl)oxy)phosphoryl)-L-alaninate] | 9.9 |  | 
3 | C/C(=C\CCP(=O)(N[C@@H](C)C(=O)OCc1ccccc1)Oc1ccccc1)CO (some centres unmarked) [Control compound 2, reference compound] |  |  | half-life at 1 μM [2]: 2 h; AUC0-t/AUC0-inf ([3]; average): 0.974; concentration at 5 min ([3]; male, cynomolgus monkey, plasma, 5 min, read-out: Plasma concentration of the unchanged drug): 299 ng/mL; concentration at 9 min ([3]; male, cynomolgus monkey, plasma, 9 min, read-out: Plasma concentration of the unchanged drug): 49 ng/mL; concentration at 30 min ([3]; male, cynomolgus monkey, plasma, 30 min, read-out: Plasma concentration of the unchanged drug): 1 ng/mL; concentration at 1 h ([3]; male, cynomolgus monkey, plasma, 1 h, read-out: Plasma concentration of the unchanged drug): 3 ng/mL; AUC(0-t) ([3]; male, cynomolgus monkey, plasma, average, read-out: AUC0-t (AUClast)): 194 ng·h/mL; clearance ([3]; male, cynomolgus monkey, plasma, average, read-out: Cl (Cl_obs)): 418 mL/min/kg; half-life [4]: 1.4 min; fraction unbound at 6 h, 1 μM [5]: 0.027
4 | C/C(=C\CCP(=O)(N[C@@H](C)C(=O)OC1CCCC1)Oc1ccccc1)CO (stereo partly drawn) [Compound 6, Cyclopentyl (((E)-5-hydroxy-4-methylpent-3-en-1-yl)(phenoxy)phosphoryl)-L-alaninate] |  | 0.098 | 
5 | CC(C)OC(=O)[C@H](C)NP(=O)(OC/C=C(/CO)C(F)(F)F)Oc1cccc2ccccc12 (stereo partly drawn) [Compound 14, isopropyl ((naphthyloxy)(((Z)-4,4,4-trifluoro-3-(hydroxymethyl)but-2-en-1-yl)oxy)phosphoryl)-L-alaninate] | 67 |  | 
6 | C[C@H](NP(=O)(OC/C=C(/CO)C(F)(F)F)Oc1ccccc1)C(=O)O[C@H]1CCOC1 (stereo partly drawn) [Compound 12, (S)-tetrahydrofuran-3-yl ((phenoxy)(((Z)-4,4,4-trifluoro-3-(hydroxymethyl)but-2-en-1-yl)oxy)phosphoryl)-L-alaninate] | 5.1 |  | 
7 | C/C(=C\COP(=O)(O)OP(=O)(O)O)CO [HMBPP control, reference compound] |  |  | EC50 ([1]; γδT cells + MIApaca/FG2, E:T=2:1, co-culture 20 hours, 10^-12-10^-5 M, read-out: MIApaca killing (EC50)): 2.1 nM
8 | CC(C)OC(=O)[C@H](C)NP(=O)(CCC=C(CO)CO)Oc1ccccc1 (stereo partly drawn) [Compound 1, Isopropyl ((5-hydroxy-4-(hydroxymethyl)pent-3-en-1-yl)(phenoxy)phosphoryl)-L-alaninate] |  | 57.1 | 
9 | C[C@H](NP(=O)(OC/C=C(/CO)C(F)(F)F)Oc1ccccc1)C(=O)OC1CCCC1 (stereo partly drawn) [Compound 11, Cyclopentyl ((phenoxy)(((Z)-4,4,4-trifluoro-3-(hydroxymethyl)but-2-en-1-yl)oxy)phosphoryl)-L-alaninate] | 35.4 |  | 
10 | CCC(CC)COC(=O)[C@H](C)NP(=O)(CC/C=C(\C)CO)Oc1ccccc1 (stereo partly drawn) [Compound 2, 2-Ethylbutyl (((E)-5-hydroxy-4-methylpent-3-en-1-yl)(phenoxy)phosphoryl)-L-alaninate] |  | 0.19 | 
11 | CC(C)OC(=O)[C@H](C)NP(=O)(OC/C=C(/CO)C(F)(F)F)Oc1ccccc1 (stereo partly drawn) [Compound 3, Isopropyl ((phenoxy)(((Z)-4,4,4-trifluoro-3-(hydroxymethyl)but-2-en-1-yl)oxy)phosphoryl)-L-alaninate] | 8 |  | 
12 | CCC(CC)COC(=O)[C@H](C)NP(=O)(OC/C=C(/CO)C(F)(F)F)Oc1ccccc1 (stereo partly drawn) [Compound 10, 2-Ethylbutyl ((phenoxy)(((Z)-4,4,4-trifluoro-3-(hydroxymethyl)but-2-en-1-yl)oxy)phosphoryl)-L-alaninate] | 12.8 |  | 
13 | CC/C(=C\CCP(=O)(N[C@@H](C)C(=O)OC(C)C)Oc1ccccc1)CO (stereo partly drawn) [Compound 4, Isopropyl (((E)-5-hydroxy-4-ethylpent-3-en-1-yl)(phenoxy)phosphoryl)-L-alaninate] |  | 174 | 
14 | CC(C)OC(=O)[C@H](C)NP(=O)(CC/C=C/CO)Oc1ccccc1 (stereo partly drawn) [Compound 5, Isopropyl (((E)-5-hydroxypent-3-en-1-yl)(phenoxy)phosphoryl)-L-alaninate] |  | 11.6 | 
